{"source": "patent US12569430B2", "about": "(priority 2021, dated 2026)", "key": {"[1]": {"assay": "In vitro dissolution of pellets, USP dissolution apparatus II (paddle)", "settings": "for Release Triamcinolone, %: n = 1", "description": "The parameters used in the dissolution study are given below.\nA USP dissolution apparatus II (paddle) (Agilent Technologies, Inc., Santa Clara, CA) was used for dissolution method parameters selection. For accelerated dissolution method development multiple parameters were evaluated: • 1). temperature of the dissolution media; • 2). initial wetting of the pellet (by adding detergent and organic solvent); • 3). the mixing speed; and • 4). the pH of the dissolution media used.\nWater was used as the starting media. A sampling timepoint (at 66 or 90 hours) was used for initial dissolution parameter assessment.\nThe dissolution tests were performed in “sink” conditions where the amount of solvent was at least 3 times higher than the minimum amount of solvent required for dissolution.\nTherefore, for the next step of the dissolution method development, 20% of ethanol was added to the dissolution media with a phosphate buffer.\nSamples were taken at 8, 24, 48, 72 and 84 hours."}, "[2]": {"settings": "cited from earlier work"}, "[3]": {"assay": "Saturation solubility of naltrexone in different media", "type": "physicochemical", "settings": "thermodynamic from solid, read-out: Solubility of API"}, "[4]": {"assay": "Toxicokinetics after subcutaneous implant", "type": "in vivo, Yucatan minipigs", "settings": "single subcutaneous implant, 1 g NTX (Group 2) vs 1 g NTX with 10 mg TCA (Group 3)"}}, "note": "Where a name gives a salt, the structure may show the parent alone. Read-outs that look alike come from different tables or passages of the source.", "data": [{"smiles": "CC1(C)O[C@@H]2C[C@H]3[C@@H]4CCC5=CC(=O)C=C[C@]5(C)[C@@]4(F)[C@@H](O)C[C@]3(C)[C@]2(C(=O)CO)O1", "note": "[triamcinolone acetonide (TCA), triamcinolone acetonide]", "values": [{"measurement": "Release of triamcinolone acetonide (TCA) from pellets", "setting": "[1]; 10 mM Acetate buffer pH 3.8, 50 RPM at 37° C., 8 hrs", "result": 24.63, "unit": "%"}, {"measurement": "Release of triamcinolone acetonide (TCA) from pellets", "setting": "[1]; 10 mM Acetate buffer pH 3.8, 50 RPM at 37° C., 24 hrs", "result": 62.64, "unit": "%"}, {"measurement": "Release of triamcinolone acetonide (TCA) from pellets", "setting": "[1]; 10 mM Acetate buffer pH 3.8, 50 RPM at 37° C., 48 hrs", "result": 79.58, "unit": "%"}, {"measurement": "Release of triamcinolone acetonide (TCA) from pellets", "setting": "[1]; 10 mM Acetate buffer pH 3.8, 50 RPM at 37° C., 72 hrs", "result": 79.36, "unit": "%"}, {"measurement": "Release of triamcinolone acetonide (TCA) from pellets", "setting": "[1]; 10 mM Acetate buffer pH 5.0, 50 RPM at 37° C., 8 hrs", "result": 17.27, "unit": "%"}, {"measurement": "Release of triamcinolone acetonide (TCA) from pellets", "setting": "[1]; 10 mM Acetate buffer pH 5.0, 50 RPM at 37° C., 24 hrs", "result": 46.65, "unit": "%"}, {"measurement": "Release of triamcinolone acetonide (TCA) from pellets", "setting": "[1]; 10 mM Acetate buffer pH 5.0, 50 RPM at 37° C., 48 hrs", "result": 69.50, "unit": "%"}, {"measurement": "Release of triamcinolone acetonide (TCA) from pellets", "setting": "[1]; 10 mM Acetate buffer pH 5.0, 50 RPM at 37° C., 72 hrs", "result": 78.13, "unit": "%"}, {"measurement": "Release of triamcinolone acetonide (TCA) from pellets", "setting": "[1]; 10 mM Acetate buffer pH 5.8, 50 RPM, 8 hrs", "result": 4.93, "unit": "%"}, {"measurement": "Release of triamcinolone acetonide (TCA) from pellets", "setting": "[1]; 10 mM Acetate buffer pH 5.8, 50 RPM, 24 hrs", "result": 15.62, "unit": "%"}, {"measurement": "Release of triamcinolone acetonide (TCA) from pellets", "setting": "[1]; 10 mM Acetate buffer pH 5.8, 50 RPM, 48 hrs", "result": 23.89, "unit": "%"}, {"measurement": "Release of triamcinolone acetonide (TCA) from pellets", "setting": "[1]; 10 mM Acetate buffer pH 5.8, 50 RPM, 72 hrs", "result": 29.78, "unit": "%"}, {"measurement": "Release Triamcinolone, %", "setting": "[1]; 10 mM PBS pH 7.4, 50 RPM, 37° C., 66 hrs", "result": 33.12, "unit": "%"}, {"measurement": "Release of triamcinolone acetonide (TCA) from pellets", "setting": "[1]; 10 mM phosphate buffer pH 5.0, 50 RPM at 37° C., 8 hrs", "result": 15.30, "unit": "%"}, {"measurement": "Release of triamcinolone acetonide (TCA) from pellets", "setting": "[1]; 10 mM phosphate buffer pH 5.0, 50 RPM at 37° C., 24 hrs", "result": 47.19, "unit": "%"}, {"measurement": "Release of triamcinolone acetonide (TCA) from pellets", "setting": "[1]; 10 mM phosphate buffer pH 5.0, 50 RPM at 37° C., 48 hrs", "result": 75.78, "unit": "%"}, {"measurement": "Release of triamcinolone acetonide (TCA) from pellets", "setting": "[1]; 10 mM phosphate buffer pH 5.0, 50 RPM at 37° C., 72 hrs", "result": 81.56, "unit": "%"}, {"measurement": "Release of triamcinolone acetonide (TCA) from pellets", "setting": "[1]; 10 mM phosphate buffer pH 6.0, 50 RPM at 37° C., 8 hrs", "result": 12.51, "unit": "%"}, {"measurement": "Release of triamcinolone acetonide (TCA) from pellets", "setting": "[1]; 10 mM phosphate buffer pH 6.0, 50 RPM at 37° C., 24 hrs", "result": 41.72, "unit": "%"}, {"measurement": "Release of triamcinolone acetonide (TCA) from pellets", "setting": "[1]; 10 mM phosphate buffer pH 6.0, 50 RPM at 37° C., 48 hrs", "result": 74.31, "unit": "%"}, {"measurement": "Release of triamcinolone acetonide (TCA) from pellets", "setting": "[1]; 10 mM phosphate buffer pH 6.0, 50 RPM at 37° C., 72 hrs", "result": 80.00, "unit": "%"}, {"measurement": "Release of triamcinolone acetonide (TCA) from pellets", "setting": "[1]; 10 mM phosphate buffer pH 7.4, 150 RPM at 37° C., 8 hrs", "result": 16.66, "unit": "%"}, {"measurement": "Release of triamcinolone acetonide (TCA) from pellets", "setting": "[1]; 10 mM phosphate buffer pH 7.4, 150 RPM at 37° C., 24 hrs", "result": 39.78, "unit": "%"}, {"measurement": "Release of triamcinolone acetonide (TCA) from pellets", "setting": "[1]; 10 mM phosphate buffer pH 7.4, 150 RPM at 37° C., 48 hrs", "result": 52.83, "unit": "%"}, {"measurement": "Release of triamcinolone acetonide (TCA) from pellets", "setting": "[1]; 10 mM phosphate buffer pH 7.4, 150 RPM at 37° C., 72 hrs", "result": 59.58, "unit": "%"}, {"measurement": "Release of triamcinolone acetonide (TCA) from pellets", "setting": "[1]; 10 mM phosphate buffer/20% EtOH pH 6.0, 50/75 RPM at 37° C., 8 hrs", "result": 33.18, "unit": "%"}, {"measurement": "Release of triamcinolone acetonide (TCA) from pellets", "setting": "[1]; 10 mM phosphate buffer/20% EtOH pH 6.0, 50/75 RPM at 37° C., 24 hrs", "result": 87.99, "unit": "%"}, {"measurement": "Release of triamcinolone acetonide (TCA) from pellets", "setting": "[1]; 10 mM phosphate buffer/20% EtOH pH 6.0, 50/75 RPM at 37° C., 48 hrs", "result": 109.67, "unit": "%"}, {"measurement": "Release of triamcinolone acetonide (TCA) from pellets", "setting": "[1]; 10 mM phosphate buffer/20% EtOH pH 6.0, 50/75 RPM at 37° C., 72 hrs", "result": 109.28, "unit": "%"}, {"measurement": "Release of triamcinolone acetonide (TCA) from pellets", "setting": "[1]; 10 mM phosphate buffer/20% EtOH pH 6.5, 50/75 RPM at 37° C., 8 hrs", "result": 28.58, "unit": "%"}, {"measurement": "Release of triamcinolone acetonide (TCA) from pellets", "setting": "[1]; 10 mM phosphate buffer/20% EtOH pH 6.5, 50/75 RPM at 37° C., 24 hrs", "result": 76.69, "unit": "%"}, {"measurement": "Release of triamcinolone acetonide (TCA) from pellets", "setting": "[1]; 10 mM phosphate buffer/20% EtOH pH 6.5, 50/75 RPM at 37° C., 48 hrs", "result": 104.85, "unit": "%"}, {"measurement": "Release of triamcinolone acetonide (TCA) from pellets", "setting": "[1]; 10 mM phosphate buffer/20% EtOH pH 6.5, 50/75 RPM at 37° C., 72 hrs", "result": 104.64, "unit": "%"}, {"measurement": "Release of triamcinolone acetonide (TCA) from pellets", "setting": "[1]; 10 mM phosphate buffer/20% EtOH pH 7.4, 50/75 RPM at 37° C., 8 hrs", "result": 23.48, "unit": "%"}, {"measurement": "Release of triamcinolone acetonide (TCA) from pellets", "setting": "[1]; 10 mM phosphate buffer/20% EtOH pH 7.4, 50/75 RPM at 37° C., 24 hrs", "result": 64.52, "unit": "%"}, {"measurement": "Release of triamcinolone acetonide (TCA) from pellets", "setting": "[1]; 10 mM phosphate buffer/20% EtOH pH 7.4, 50/75 RPM at 37° C., 48 hrs", "result": 98.10, "unit": "%"}, {"measurement": "Release of triamcinolone acetonide (TCA) from pellets", "setting": "[1]; 10 mM phosphate buffer/20% EtOH pH 7.4, 50/75 RPM at 37° C., 72 hrs", "result": 107.29, "unit": "%"}, {"measurement": "Release Triamcinolone, %", "setting": "[1]; 20 mM Acetate Buffer pH 3.8, 50 RPM, 37° C., 66 hrs", "result": 83.52, "unit": "%"}, {"measurement": "Release Triamcinolone, %", "setting": "[1]; 0.05N HCl, pH 1, 50 RPM, 37° C., 66 hrs", "result": 85.59, "unit": "%"}, {"measurement": "Release Triamcinolone, %", "setting": "[1]; 0.1% SLS in Water, 50 RPM, 37° C., 66 hrs", "result": 39.09, "unit": "%"}, {"measurement": "Release Triamcinolone, %", "setting": "[1]; 20% EtOH, 80% Water, 50 RPM, 37° C., 90 hrs", "result": 61.77, "unit": "%"}, {"measurement": "Release Triamcinolone, %", "setting": "[1]; Water, 50 RPM, 37° C., 90 hrs", "result": 31.50, "unit": "%"}, {"measurement": "Release Triamcinolone, %", "setting": "[1]; Water, 60 RPM, 60° C., 66 hrs", "result": 38.63, "unit": "%"}, {"measurement": "Release Triamcinolone, %", "setting": "[1]; Water, 150 RPM, 37° C., 66 hrs", "result": 33.47, "unit": "%"}]}, {"smiles": "O=C1CC[C@@]2(O)[C@H]3Cc4ccc(O)c5c4[C@@]2(CCN3CC2CC2)[C@H]1O5", "note": "[naltrexone hydrochloride]", "values": [{"measurement": "solubility in EtOH", "setting": "[2]", "result": "< 1000", "unit": "µg/mL"}]}, {"smiles": "O=C1CC[C@@]2(O)[C@H]3Cc4ccc(O)c5c4[C@@]2(CCN3CC2CC2)[C@H]1O5", "note": "[naltrexone, (4R,4aS,7aR,12bS)-3-(cyclopropylmethyl)-4a,9-dihydroxy-2,4,5,6,7a,13-hexahydro-1H-4,12-methanobenzofuro[3,2-e]isoquinolin-7-one]", "values": [{"measurement": "solubility", "setting": "[3]; pH 5, aqueous buffer, Hanks' Balanced Salt solution pH5.0", "result": 770, "unit": "µg/mL"}, {"measurement": "solubility", "setting": "[3]; pH 5, aqueous buffer, PBS pH5.0 (1:5)", "result": 5210, "unit": "µg/mL"}, {"measurement": "solubility", "setting": "[3]; pH 5.5, aqueous buffer, PBS pH5.5 (1:5)", "result": 3120, "unit": "µg/mL"}, {"measurement": "solubility", "setting": "[3]; pH 5.5, aqueous with cosolvent or surfactant or cyclodextrin, 20% EtOH + 80% PBS pH5.5 (1:10)", "result": 5730, "unit": "µg/mL"}, {"measurement": "solubility", "setting": "[3]; pH 6, aqueous buffer, PBS pH6.0 (1:5)", "result": 2910, "unit": "µg/mL"}, {"measurement": "solubility", "setting": "[3]; pH 7.4, aqueous buffer, Hanks' Balanced Salt solution pH7.4", "result": 670, "unit": "µg/mL"}, {"measurement": "solubility", "setting": "[3]; pH 7.4, aqueous buffer, PBS pH7.4", "result": 960, "unit": "µg/mL"}, {"measurement": "solubility", "setting": "[3]; pH 8, aqueous buffer, Hanks' Balanced Salt solution pH8.0", "result": 650, "unit": "µg/mL"}, {"measurement": "solubility", "setting": "[3]; pH 8, aqueous buffer, PBS pH8.0", "result": 750, "unit": "µg/mL"}, {"measurement": "Systemic exposure to NTX (Cmax and AUC)", "setting": "[4]", "result": "did not appear to be impacted"}]}]}
